According to US7727960B2, “C5a receptor antagonists” (Jerini AG, priority 2003, dated 2010):
Non-standard residues stand in square brackets, D forms with d. Residues, ends and D or L forms follow the SMILES beside them. Bta = N[C@@H](Cc1csc2ccccc12)C(=O)O; d(hLeu) = CC(C)CC[C@@H](N)C(=O)O; Orn = NCCC[C@H](N)C(=O)O

What was measured:
[1] = target: T1, human C5aR (CD88) (Homo sapiens, UniProt P21730); assay: Determination of the IC50 value in an enzyme release assay (functional assay, antagonistic activity); type: cell-based
T1 construct: expressed in transfected cells; host or cells: rat basophilic leukemia cells (RBL)
T1 sequence (P21730 1-350): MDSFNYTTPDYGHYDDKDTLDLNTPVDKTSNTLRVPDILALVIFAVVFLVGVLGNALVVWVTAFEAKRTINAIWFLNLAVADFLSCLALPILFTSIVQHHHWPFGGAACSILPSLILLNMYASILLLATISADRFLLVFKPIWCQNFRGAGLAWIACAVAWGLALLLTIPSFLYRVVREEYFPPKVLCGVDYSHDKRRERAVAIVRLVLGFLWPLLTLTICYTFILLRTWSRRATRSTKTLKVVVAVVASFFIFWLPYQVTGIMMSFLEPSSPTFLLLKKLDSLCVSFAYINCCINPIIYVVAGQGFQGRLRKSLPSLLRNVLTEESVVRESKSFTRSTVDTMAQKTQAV

[2] = target: T1, human C5aR (CD88); assay: Determination of EC50 values in an enzyme release assay (agonistic activity, no C5a added); type: cell-based; details: cellular assay, up to a concentration of at least 1430 nM
Procedure: The determination of the EC50 value was performed in a way similar to the procedure described in example 11, with the only exception that 30 μl of the compound to be tested were mixed with 75 μl of the cell suspension described in example 11. There was no preincubation or addition of C5a for stimulation of the enzyme release.

[3] = test system: BALB/c mice; assay: Model of immune complex mediated peritonitis (reverse passive Arthus reaction); type: in vivo; details: 1 mg/kg i.v. 15 min before Arthus reaction, lavage after 6 h, FIG. 1
Procedure: Immune complex mediated peritonitis is part of the pathological conditions of immune complex related diseases such as vasculitis, nephritis, arthritis, and farmer's disease. The corresponding animal model was described by Heller et al. (1999 Journal of Immunology 163: 985-994) and takes advantage of the pro-inflammatory effect of immune complexes formation from i.v. administration of the antigen and i.p. administration of the antibody.
BALB/c mice (6-8 weeks old) were treated i.v. with the compound 149 (1 mg/kg body weight in 200 μl vehicle) which is one in accordance with the present invention, 15 min before the initiation of the reverse passive Arthus reaction. Arthus reaction was induced by the administration of OVA (20 mg/kg i.v. in 200 μl PBS) and polyclonal anti-OVA Ab (rabbit; 800 μg/Maus i.p). After 6 h a peritoenal lavage with 2 ml PBS 0.1% BSA was done. The collected PE-cells were stained with DIFF-Quick. At least 20 visual fields (100× magnification) were analysed for the presence of neutrophils.

[4] = test system: Female Wistar rats; assay: Model of C5a induced neutropenia; type: in vivo; details: i.v. infusion 10 min before 2 μg/kg hrC5a i.v., FIG. 2
Text: C5a induced neutropenia is a model for shock induced diseases (e.g. septic shock), where the systemic role of C5a such as neutropenia, blood pressure decrease, plays an important role. The reason for the decrease of the neutrophils in the circulation is their C5a triggered binding to the vessel walls. This process of neutrophil recruitment is also playing an important role in many other diseases like reperfusion injury. This model was also described by Short et al. (1999 British Journal of Pharmacology 125: 551-554).
Female Wistar rats were anaesthetized i.p. with ketamine (80 mg/kg) and xylazine (12 mg/kg). A catheter was introduced into the jugular veine and the animals were subjected to the following procedure: • 1. Rats were pre-treated with vehicle or compound 149 which is a compound according to the invention, via i.v. infusion. A blood sample was taken one minute prior to that. • 2. 10 min after compound infusion the rats were treated with 2 μg/kg hrC5a i.v. (2 μg/kg over 1 min)
Blood samples are taken shortly before and at various times after hrC5a administration. • 3. […]
White blood cell count was measured with a haematology-cell-counter. […]
The differential cell count is determined as the sum of neutrophils, eosinophils, basophils, lymphocytes and monocytes of 100 cells. Then the percentage of the neutrophils in relation to all white blood cells is calculated.

CC(=O)N[C@@H](Cc1ccccc1)C(=O)N[C@@H](CCCN)C(=O)N1CCC[C@H]1C(=O)N[C@H](CCC(C)C)C(=O)N[C@@H](Cc1csc2ccccc12)C(=O)N[C@@H](Cc1ccccc1)C(N)=O [Compound 149, Ac-Phe-Orn-Pro-hle-Bta-Phe-NH2] (Ac-F[Orn]P[d(hLeu)][Bta]F-NH2)
inhibitory activity (in words) [1]: noteworthy inhibitory activity | agonistic activity (in words) [2]: pure antagonists | influx of pro-inflammatory cells (neutrophils) into the peritoneum [3]: reduction of the influx of pro-inflammatory cells into the peritoneum | C5a-induced neutropenia [4]: reduces significantly C5a-induced neutropenia
